These results are taken from patent US20170121683A1, “ARYL HYDROCARBON RECEPTOR DISRUPTION AND ENHANCEMENT” (priority 2015, published 2017).

This experiment relates to hESC-derived hematopoietic cells. Put plainly: cNK, NKP and ILC3 phenotyping by flow cytometry. Type of experiment: cell-based, human. From the text: FIG. 15A. Gating scheme for identifying cNK (CD94^−CD117^+), NK progenitor cells (NKP, CD94^+CD117^− and CD94^+CD117^−LFA1^+), and ILC (CD94^−CD117^+LFA1^−) phenotypes. FIG. 15B. Representative flow cytometry profile of non-adherent hematopoietic cells differentiated from hESCs in the presence of DMSO, SR-1, or TCDD at Day 11+28. FIG. 15C. cNK, NKP, and NKP/ILC subpopulations from Day 11+28 DMSO, SR-1, and TCDD differentiated hESCs assessed for CD56 and LFA (CD11a/CD18) surface antigen expression. Representative flow cytometry plots are shown, n=3. FIG. 15D. Total percentage of cNK, NKP, and NKP/ILCs present in the non-adherent fraction of differentiating hESCs in the presence of DMSO, SR-1, or TCDD at Day 11+28. n=3, error bars represent SEM, *p<0.05, **p<0.01, ***p<0.001 as compared to DMSO treated controls and assessed by two-way ANOVA+Tukey-Kramer multiple comparisons post-hoc test. FIG. 15E. CD94^−CD117^+ subpopulations were further quantified for expression of LFA^+ (NKP) and LFA^− (ILC) by flow cytometry. n=3, error bars represent SEM, *p<0.05, **p<0.01 as compared to DMSO treated controls and assessed by two-way ANOVA+Tukey-Kramer multiple comparisons post-hoc test.
Spin-EBs were generated as described above (see also Knorr et al. Stem Cells Dev. 2013; 22(13):1861-9; Ni et al. Embryonic Stem Cell Immunobiol. Methods Protoc. Methods Mol. Biol. 2013; 1029:33-41; Hermanson et al. Stem Cells. 2016; 34(1):93-101). Following 11 days of mesoderm conditioning (Day 11), spin-EBs were collected and analyzed by flow cytometry to assess hematopoietic progenitor cell potential (see flow cytometry methods for antibodies used) (FIG. 4A). Spin-EBs yielding >30% CD34^+CD45^+ cells were transferred onto 24-well plates coated with irradiated OP9-DL1 cells (as described in Martin et al. Blood. 2008; 112(7):2730-7; La Motte-Mohs et al. Blood. 2005; 105(4):1431-9) (now defined as Day 11+0). EBs and OP9-DL1 were co-cultured in NK differentiation media (NKDM) supplemented initially with SCF, IL-15, IL-7, Flt3-L (all R&D Systems), and IL-3 (PeproTech) for one week; DMSO, SR-1, or TCDD were also added at Day 11+0. Every week, a one-half media change with NKDM supplemented with SCF, IL-15, IL-7, Flt3-L, and drugs was performed. hESCs were differentiated for four additional weeks (Day 11+28) and non-adherent cells were harvested for analysis.
The following additional antibodies were used (all anti-human): LFA-1 (CD11a/CD18)-APC-R700 (BD Biosciences), CD31-APC (eBioscience), CD33-APC (BD Biosciences), CD34-PECy7 (BD Biosciences), CD34-APC (BD Biosciences), CD41a-APC (BD Biosciences), CD43-APC (BD Biosciences), CD45-APC (BD Biosciences), CD56-PECy7 (BD Biosciences), CD56-BV421 (BD Biosciences), CD94-PerCP-Cy5.5 (BD Biosciences), CD117-PECy7 (BD Biosciences), CD117-APC (eBiosciences), CD144-APC (eBioscience). Samples were analyzed on either an LSRFortessa or LSRII flow cytometer (BD Biosciences). Gating was set relative to isotype controls of identical fluorophores. Data from flow cytometry was analyzed using FlowJo software (Treestar, Ashland, Oreg.).
To assess the effects of AHR modification on NK cell and ILC specification, non-adherent hematopoietic cells derived from hESCs on Day 11+28 cultured in NKDM supplemented with DMSO, SR-1, or TCDD were harvested as single-cell suspensions. Cells were washed with DPBS, filtered, and stained with the following antibodies (all anti-human): CD56-BV421, CD94-PerCP-Cy5.5, CD117-PECy7, and LFA-1 (CD11a/CD18)-APC-R700 in sterile FACS Buffer (DPBS+2% FBS and 0.1% sodium azide) for 30 minutes at 4° C. Cells were washed with FACS buffer and cells were counterstained with Sytox Blue (ThermoFisher Scientific) immediately prior to sorting. Live NKP, cNK, and ILC3 populations were sorted directly into FACS tubes containing NKDM basal media using a FACSAria II (BD Biosciences) cell sorter. Cells were immediately centrifuged, washed once with PBS, and processed from total RNA isolation as described above.

Where [1] appears, read: Day 11+28, non-adherent fraction, n=3.

The structures appear in SMILES notation.

As to `CC(C)n1cnc2c(NCCc3ccc(O)cc3)nc(-c3csc4ccccc34)nc21` [SR-1, StemReginin-1], under “Day 11+28”, the “change in CD94−CD117+ population compared to DMSO” value is “significant reduction”. Moreover, under setting [1], the “NKP (CD94+CD117+) cells, total percentage” value is 16.13±0.58% and the “cNK cells (CD94+CD117−), total percentage” value was 37.0±2.92%.

On to `Clc1cc2c(cc1Cl)Oc1cc(Cl)c(Cl)cc1O2` [TCDD, 2,3,7,8-tetrachlorodibenzo-p-dioxin], for which the “shift of NKP population compared to DMSO” value (Day 11+28) is listed as “significantly shifted hESC-derived hematopoietic cells away from NKPs”. Besides, the “percentage of CD94−CD117+ cells absent for LFA1 (ILC3)” value (Day 11+28, n=3) was determined as 69.4±4.57%. For the same molecule, under setting [1], the “CD94−CD117+ cells, total percentage” value was 28.5±4.42%.
